Experimental data from paper PMC6664820, “Novel natural and synthetic inhibitors of solute carriers SGLT1 and SGLT2” (Pharmacology Research & Perspectives, 2019).
“And” between values parts separate entries of the source, which are not always exact repeats. Equal values may be shown once. Where a name gives a salt, the structure may show the parent alone. Read-outs that look alike come from different tables or passages of the source.

Tests used:
SGLT1 = biological target: T1, SGLT1 (Homo sapiens, UniProt P13866); assay: SGLT1 inhibition assay for validation of screening hits and similar compounds (1‐NBD‐glucose uptake, CHO‐hSGLT1 cells); assay type: cell-based; design: activity: dose or concentration left out as unconfirmed; settings: for activity: compound, normalized 1-NBD-glucose uptake, CHO-hSGLT1 cells; for remaining activity at 5 µM / remaining activity at 50 µM: 0.5 h, read-out: NORMALIZED SGLT1 ACTIVITY (%)
T1 sequence (P13866 1-664): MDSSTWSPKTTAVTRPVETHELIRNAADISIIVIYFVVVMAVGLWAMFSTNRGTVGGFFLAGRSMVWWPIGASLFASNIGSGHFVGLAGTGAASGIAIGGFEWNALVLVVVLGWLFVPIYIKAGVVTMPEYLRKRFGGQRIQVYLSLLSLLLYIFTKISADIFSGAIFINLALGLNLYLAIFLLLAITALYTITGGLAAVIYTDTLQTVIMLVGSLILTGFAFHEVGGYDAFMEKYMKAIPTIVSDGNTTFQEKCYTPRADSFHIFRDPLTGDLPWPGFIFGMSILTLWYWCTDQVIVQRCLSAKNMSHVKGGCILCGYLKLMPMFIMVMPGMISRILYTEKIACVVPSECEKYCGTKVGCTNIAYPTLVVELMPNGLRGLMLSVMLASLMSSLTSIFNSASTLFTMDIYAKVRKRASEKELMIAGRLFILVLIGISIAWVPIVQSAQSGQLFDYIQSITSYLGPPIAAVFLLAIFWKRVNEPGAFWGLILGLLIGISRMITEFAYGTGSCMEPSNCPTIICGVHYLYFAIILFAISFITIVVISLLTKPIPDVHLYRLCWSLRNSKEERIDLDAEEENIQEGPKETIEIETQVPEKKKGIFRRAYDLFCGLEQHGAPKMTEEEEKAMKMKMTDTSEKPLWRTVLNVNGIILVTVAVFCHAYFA

hSGLT2 = biological target: T2, hSGLT2 (Homo sapiens, UniProt P31639); assay: SGLT2 inhibition assay for validation of screening hits and similar compounds (1‐NBD‐glucose uptake, CHO‐hSGLT2 cells); assay type: cell-based; design: activity: dose or concentration left out as unconfirmed; settings: for activity: compound, normalized 1-NBD-glucose uptake, CHO-hSGLT2 cells; for SGLT2/SGLT1 ACTIVITY RATIO 5 uM Mean: ratio of normalized SGLT2 to SGLT1 activity at 5 uM; for remaining activity at 5 µM / remaining activity at 50 µM: 0.5 h, read-out: NORMALIZED SGLT2 ACTIVITY (%)
T2 sequence (P31639 1-672): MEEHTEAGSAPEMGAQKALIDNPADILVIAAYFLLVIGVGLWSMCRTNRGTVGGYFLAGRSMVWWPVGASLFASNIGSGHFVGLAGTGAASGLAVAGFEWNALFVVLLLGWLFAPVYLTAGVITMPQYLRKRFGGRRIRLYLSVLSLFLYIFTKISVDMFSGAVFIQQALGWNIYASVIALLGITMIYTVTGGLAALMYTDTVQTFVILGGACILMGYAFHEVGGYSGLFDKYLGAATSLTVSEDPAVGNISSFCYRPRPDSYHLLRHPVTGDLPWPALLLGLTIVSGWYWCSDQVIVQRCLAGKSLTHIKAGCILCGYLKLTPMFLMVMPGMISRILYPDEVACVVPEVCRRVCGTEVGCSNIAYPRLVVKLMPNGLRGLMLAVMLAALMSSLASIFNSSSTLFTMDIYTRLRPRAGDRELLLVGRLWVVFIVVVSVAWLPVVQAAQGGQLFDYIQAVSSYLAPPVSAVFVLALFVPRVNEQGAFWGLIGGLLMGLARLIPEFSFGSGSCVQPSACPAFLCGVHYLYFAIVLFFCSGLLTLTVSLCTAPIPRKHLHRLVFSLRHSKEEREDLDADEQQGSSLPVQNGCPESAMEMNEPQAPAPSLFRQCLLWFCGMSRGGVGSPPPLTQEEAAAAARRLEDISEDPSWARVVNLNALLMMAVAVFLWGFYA

CHO‐hSGLT1/2 cells = assay: Cytotoxicity assay (ToxiLight, adenylate kinase leakage into CHO‐SGLT1/2 inhibition assay media); design: CYTOTOXICITY / CY[…], mean / CYTOTOXICITY (% of vehicle control) Mean / CYTOTOXICITY, mean / CY[…] (% of vehicle control) Mean: dose or concentration left out as unconfirmed; settings: mean; for CY[…] 50 mM: at 50 mM (so in the source);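 as to all read-outs here: bioluminescent read-out of adenylate kinase released from lysed cells into the medium, given relative to DMSO vehicle control defined as 0%, higher meaning more cytolysis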
Protocol: The cytotoxicity of representative SGLT1/2 inhibitors and compounds from the different chemical clusters was tested. Cytotoxicity was determined using the ToxiLight bioassay kit according to the supplier's instructions. This nondestructive assay measures leakage of the enzyme adenylate kinase (AK) from damaged cells into the CHO‐SGLT1/2 inhibition assay media, ie the degree of cytolysis. […] Next, bioluminescence was measured using a FlexStation 3 Multi‐Mode Microplate Reader (Molecular Devices) by 1 second integrated reading. Cytotoxicity was expressed as the percentage of bioluminescence of the DMSO vehicle control which was set at 0%. If applicable, statistical outliers were determined using Grubbs’ test (alpha = 0.05) and excluded for calculation of the mean ± SD.

## COc1ccc(-c2coc3cc(O[C@@H]4O[C@H](CO)[C@@H](O)[C@H](O)[C@H]4O)c(OC)cc3c2=O)cc1OC [Cladrastin-7-O-b-D-glucopyranoside]
SGLT1; mean
  activity: 104%
hSGLT2; mean
  activity: 103%
hSGLT2
  SGLT2/SGLT1 ACTIVITY RATIO 5 uM Mean: 1.0
CHO‐hSGLT1/2 cells
  CYTOTOXICITY (% of vehicle control) Mean: -23 % of vehicle control

## CCOC(=O)c1ccc(OC2OC(CO)C(O)C(O)C2O)cc1 (stereo not shown) [Clivicolide]
SGLT1; mean
  activity: 99%
hSGLT2; mean
  activity: 111%
hSGLT2
  SGLT2/SGLT1 ACTIVITY RATIO 5 uM Mean: 1.1
CHO‐hSGLT1/2 cells
  CYTOTOXICITY (% of vehicle control) Mean: 12 % of vehicle control

## Clc1ccc(C(OCCN2CCCCC2)c2ccccc2)cc1 (stereo not shown) [Cloperastine HCl]
SGLT1; mean
  activity: 61%
hSGLT2; mean
  activity: 65%
hSGLT2
  SGLT2/SGLT1 ACTIVITY RATIO 5 uM Mean: 1.1
CHO‐hSGLT1/2 cells
  CYTOTOXICITY (% of vehicle control) Mean: -5 % of vehicle control

## COC(=O)C(c1ccccc1Cl)N1CCc2sccc2C1 (stereo not shown) [Clopidogrelum, clopidogrel]
SGLT1
  remaining activity at 5 µM: 96%
  remaining activity at 50 µM: 54%
hSGLT2
  SGLT2/SGLT1 ACTIVITY RATIO: 1.1 and 1.0
  remaining activity at 5 µM: 95%
  remaining activity at 50 µM: 60%
CHO‐hSGLT1/2 cells
  CY[…] 50 mM: -9

## O=c1c(-c2ccc(O)cc2)coc2cc(O[C@@H]3O[C@H](CO)[C@@H](O)[C@H](O)[C@H]3O)ccc12 [Daidzin]
SGLT1; mean
  activity: 97%
hSGLT2; mean
  activity: 102%
hSGLT2
  SGLT2/SGLT1 ACTIVITY RATIO 5 uM Mean: 1.0
CHO‐hSGLT1/2 cells
  CYTOTOXICITY (% of vehicle control) Mean: -19 % of vehicle control

## O=c1c2ccccc2[nH]c(=S)n1CCN1CCC(=C(c2ccc(F)cc2)c2ccc(F)cc2)CC1 [Diacylglycerol Kinase Inhibitor II]
SGLT1; mean, concentration not given
  remaining activity at 5 µM: 105%
  remaining activity at 50 µM: 89%
hSGLT2; mean, concentration not given
  remaining activity at 5 µM: 106%
  remaining activity at 50 µM: 85%
CHO‐hSGLT1/2 cells
  CYTOTOXICITY: -13

## CN1CCC(OC(c2ccccc2)c2ccccc2)CC1 [Diphenylpyraline HCl]
SGLT1; mean
  activity: 108%
hSGLT2; mean
  activity: 104%
hSGLT2
  SGLT2/SGLT1 ACTIVITY RATIO 5 uM Mean: 1.0
CHO‐hSGLT1/2 cells
  CY[…] (% of vehicle control) Mean: -6 % of vehicle control

## C[C@@H]1O[C@@H](O[C@H]2[C@H](O[C@H]3CC[C@@]4(C)[C@@H](CC[C@]5(C)[C@@H]4CC=C4[C@@H]6CC(C)(C)CC[C@]6(C(=O)O[C@@H]6O[C@H](CO[C@@H]7O[C@H](CO)[C@@H](O)[C@H](O)[C@H]7O)[C@@H](O)[C@H](O)[C@H]6O)CC[C@]45C)[C@]3(C)CO)OC[C@H](O)[C@@H]2O)[C@H](O)[C@H](O)[C@H]1O [Dipsacoside B]
SGLT1
  remaining activity at 5 µM: 96%
  remaining activity at 50 µM: 104%
hSGLT2
  SGLT2/SGLT1 ACTIVITY RATIO: 1.2 and 1.3
  remaining activity at 5 µM: 121%
  remaining activity at 50 µM: 121%
CHO‐hSGLT1/2 cells
  CY[…] 50 mM: -12

## COC(=O)[C@@]1(C)CC[C@]2(C(=O)O[C@@H]3O[C@H](CO)[C@@H](O)[C@H](O)[C@H]3O)CC[C@]3(C)C(=CC[C@@H]4[C@@]5(C)C[C@H](O)[C@H](O[C@@H]6OC[C@@H](O[C@@H]7O[C@H](CO)[C@@H](O)[C@H](O)[C@H]7O)[C@H](O)[C@H]6O)[C@@](C)(CO)[C@@H]5CC[C@]43C)[C@@H]2C1 [Esculentoside H]
SGLT1; mean, concentration not given
  remaining activity at 5 µM: 104%
  remaining activity at 50 µM: 102%
hSGLT2; mean, concentration not given
  remaining activity at 5 µM: 120%
  remaining activity at 50 µM: 112%
CHO‐hSGLT1/2 cells
  CYTOTOXICITY: -13

## C=C[C@@]1(C)CC(=O)[C@]2(O)[C@@]3(C)[C@@H](O)CCC(C)(C)[C@@H]3[C@H](O)[C@H](OC(C)=O)[C@@]2(C)O1 [Forskolin]
SGLT1; mean, concentration not given
  remaining activity at 5 µM: 89%
  remaining activity at 50 µM: 79%
hSGLT2; mean, concentration not given
  remaining activity at 5 µM: 103%
  remaining activity at 50 µM: 95%
CHO‐hSGLT1/2 cells
  CY[…] 50 mM: 12

## C[C@@H]1O[C@@H](O[C@H]2[C@H](O[C@H]3CC[C@@]4(C)[C@@H](CC[C@]5(C)[C@@H]4CC=C4[C@@H]6CC(C)(C)CC[C@]6(C(=O)O)CC[C@]45C)[C@]3(C)CO)OC[C@H](O)[C@@H]2O)[C@H](O)[C@H](O[C@@H]2O[C@H](CO)[C@@H](O)[C@H](O)[C@H]2O)[C@H]1O [Kalopanaxsaponin H]
SGLT1; mean, concentration not given
  remaining activity at 5 µM: 104%
  remaining activity at 50 µM: 99%
hSGLT2; mean, concentration not given
  remaining activity at 5 µM: 117%
  remaining activity at 50 µM: 110%
CHO‐hSGLT1/2 cells
  CYTOTOXICITY: -33
